{
  "source": "patent US20060240402A1",
  "about": "“Marine invertebrate gametes and embryos as an assay system for therapeutic screening” (priority 2005, published 2006)",
  "key": {"Spisula oocytes": {"tested_on": "Spisula oocytes", "assay": "Whole egg germinal vesicle breakdown (GVBD) and spindle assembly assay", "format": "cell-based, Spisula solidissima", "protocol": "Oocytes are prepared as generally described in Allen R D. (1953) Biol Bull. 105:213-239; Palazzo, R. E., Vaisberg, E., Cole, R. W. and Rieder, C. L. (1992) Science. 256: 219-221; Vogel, J. M., Stearns, T., Rieder, C. L. and Palazzo, R. E. (1997) J. Cell Biol. 137: 193-202; and Schnackenberg, B. J. and Palazzo, R. E. (1999) Biology of the Cell. 91: 429-438.\n(§1) Briefly, adult Spisula or Mulinia are collected from the Atlantic Ocean, often by the Marine Resources Department of the Marine Biological Laboratory (Woods Hole, Mass.) or from commercial fisherman and maintained in flow-through sea water tanks at ˜13° C. containing artificial sea water (ASW). Oocytes are then dissected from ripe ovaries, passed through cheese cloth, and washed in sea water by three cycles of suspension/sedimentation. Oocytes are then activated by treatment with KCl for 4 min, and lysates are prepared as previously described by Palazzo et al. (Palazzo, R. E., J. B. Brawley, and L. I. Rebhun (1988). Zool. Sci. (Tokyo). 5: 603-611).\n(§2) Aster formation in oocytes, embryos, and lysates is assessed with polarized light microscopy by adding 3% hexylene glycol to small aliquots and warming to 24° C. (Palazzo, R. E., J. B. Brawley, and L. I. Rebhun (1988). Zool. Sci. (Tokyo). 5: 603-611). The remaining lysate is aliquoted, snap frozen, and stored at −80° C. Frozen lysates retain the ability to assemble asters after years of storage.\nIn one embodiment of the invention, oocyte activation to induce GVBD, aster formation, spindle assembly, and cleavage can be induced by 5-hydroxy triptamine (5-HT, serotonin), fertilization, or depolarization of the cell plasma membrane by treatment with KCl when cells are incubated in sea water. This requires the entry of calcium into the cell after treatment with these agents. Thus, the GVBD, or events subsequent to GVBD, can be used as indicators for hormone-receptor interactions (serotonin), effect of calcium channel blockers (resulting in a block of GVBD and subsequent events after treatment with KCL, 5HT or sperm), or agents that block fertilization generally. Therefore the present invention can be used not only to screen for antimitotic agents but also putative neuromodulators (serotonin inhibitors and the like), cardiomodulators, vasoactive agents (calcium channel blockers) and anti-fertility agents.\nUsing the whole egg assay described above, Spisula oocytes were treated with 0.25 μM HMN-176 or 0.001% DMSO and activated to undergo germinal vesicle (nucleus) breakdown (GVBD), and aster and spindle formation."}, "human tumor cell lines": {"tested_on": "human tumor cell lines", "details": "several human tumor cell lines; cited from earlier work"}, "mouse xenograft models": {"tested_on": "mouse xenograft models", "details": "cited from earlier work"}, "CFPAC cells": {"tested_on": "CFPAC cells", "assay": "Mammalian spindle phenotypes and time in mitosis in CFPAC cells", "format": "cell-based, human", "protocol": "To determine the effect of HMN-176 on mammalian cell lines, the transformed human cell line, CFPAC, was used. CFPAC cells were derived from a ductal adenocarcinoma (liver metastasis) from a patient with cystic fibrosis (ATCC #CRL-1918). CFPAC cellswere treated for 2 hours with 0.5 uM DMSO or 0.5 uM HMN-176 (n=79). Cells were studied for progression through mitosis and cell cleavage using video microscopy, or prepared for immunofluorescence analysis with antibodies to visualize beta tubulin or treated with Hoechst 33342 (Sigma Aldrich, St. Louis, Mo. to visualize DNA and chromosomes."}, "sea urchin tubulin": {"tested_on": "sea urchin tubulin", "assay": "Tubulin polymerization (turbidity) assay, sea urchin tubulin", "format": "biochemical, Strongylocentrotus purpuratus", "details": "0.025 uM, 0.25 uM and 2.5 uM", "protocol": "Sea urchin (Strongylocentrotus purpuratus) microtubules are prepared by three cycles of polymerization/depolymerization as previously described (Suprenant, K. A., and J. C. Marsh (1987) J. Cell Sci. 87: 71-84). Aliquots of ˜0.5-2.0 mg/ml protein are stored in 100 mM potassium-Pipes, pH 6.9, 1 mM EGTA, 5 mM MgSO4, 2 mM GTP (reassembly buffer) at −80° C. Three-cycled tubulin is diluted with reassembly buffer to 0.7 mg/ml for all functional assays unless otherwise stated.\n(§3) The tubulin polymerization assay used herein is performed according to the teachings of Vogel, J. M., Steams, T., Rieder, C. L. and Palazzo, R. E. (1997) J. Cell Biol. 137: 193-202 and Suprenant K A, Marsh J C. (1987) J Cell Sci. 87:71-84, each of which is incorported herein by reference in its entirety.\nThe effect of HMN-176 on sea urchin tubulin (0.75 mg/mL of S. purpuratus tubulin at 26° C.) polymerization in defined media was examined according to the methods described above. Sea urchin tubulin was isolated from Strongylocentrotus purpuratus oocytes by three cycles of microtubule polymerization and depolymerization. After the third cycle, microtubules were depolymerized, centrifuged to clarify, and the resulting supernatant adjusted to a concentration of 0.75 mg/ml protein. Samples were aliquoted and stored at −80° C.\nThe polymerization assay was used to test the effects of varying concentrations of HMN-176 (0.025 uM, 0.25 uM and 2.5 uM) along with varying amounts of DMSO for control (0.0001%, 0.001% and […]), respectively. Polymerization of untreated tubulin was also measured.\n(§4) Sea urchin and clam tubulin turbidity assays were performed at 30° C. and 0.7 mg/mL of tubulin. Doses of 0.025 uM, 0.25 uM and 2.5 uM of HMN-176 were compared to DMSO treatment, all of which were compared to untreated control."}, "[1]": {"tested_on": "Isolated centrosomes reconstituted with sea urchin tubulin", "assay": "Isolated centrosome assay (aster formation in defined media)", "format": "biochemical, Spisula solidissima", "details": "0.25 uM, 0.75 mg/mL sea urchin tubulin, time course of 25 minutes", "description": "Centrosomes are isolated and prepared according to the methods of Vogel et al. (Vogel, J. M., Stearns, T., Rieder, C. L. and Palazzo, R. E. (1997) J. Cell Biol. 137: 193-202). Briefly, centrosomes are isolated from lysates by sucrose density-gradient centrifugation using a modification of the procedures known in the art for isolation of mammalian centrosomes. As such, lysates are thawed on ice, and aliquots are removed and tested for aster formation using hexylene glycol and polarized light microscopy as previously described. For each preparative gradient, 2-3 ml of crude lysate (˜9-18×10^6 centrosomes) are diluted with 0.60 vol of aster buffer (Aster Buffer: 20 mM sodium-Pipes, pH 7.2, 100 mM NaCl, 5.0 mM MgSO4), resuspended, and centrifuged (5,500 g/4° C./10 min) using a rotor (model JS 13.1; Beckman Instruments). […] Fractions (1.0 ml) are collected at 4° C. by bottom puncture of centrifuge tubes, and sucrose density is determined with the use of a hand-held refractometer.\nFractions are tested for centrosome content based on their ability to organize microtubules in the form of radial astral arrays when reconstituted with tubulin media. Thus, 10 μl aliquots from each fraction are diluted into 40 μl of tubulin media (0.3-0.7 mg/ml three-cycled sea urchin tubulin in RAB buffer containing 2 mM GTP) and incubated for 10 min at ambient temperature, and asters are counted using a hemacytometer viewed with a polarized light microscope. […]\nCentrosome assembly and function is crucial for the coordinated polymerization of microtubules that leads to spindle assembly and chromosome segregation during mitosis. […] The isolated centrosome assay is used to (1) induce the synchronous assembly of centrosomes in hundreds of grams of live Spisula oocytes or large quantities of oocyte lysates and is performed according to the methods disclosed by Palazzo, R. E., Vaisberg, E., Cole, R. W. and Rieder, C. […]"}, "[2]": {"tested_on": "centrosomes in Spisula lysates", "assay": "Lysate aster formation assay", "format": "biochemical, Spisula solidissima", "details": "0.025 uM, 0.25 uM or 2.5 uM", "protocol": "as §1, §2\nUsing the lysate aster formation assay described above, Spisula lysates were warmed to room temperature with lysates containing varying amounts of HMN-176 (0.025 uM, 0.25 uM or 2.5 uM) or DMSO (0.0001%, 0.001%, or 0.01%) as control. […]"}, "clam tubulin": {"tested_on": "clam tubulin", "assay": "Tubulin turbidity assay, clam tubulin", "format": "biochemical, Spisula solidissima", "details": "0.025 uM, 0.25 uM and 2.5 uM; 30° C., 0.7 mg/mL of tubulin", "protocol": "Three-cycled tubulin can also be prepared from Spisula oocyte lysates using a modification of the procedure described in Suprenant, K. A. (1989) Exp. Cell Res. 184: 167-180. Lysates are thawed and diluted with 0.8 vol of dilution buffer (100 mM potassium-Pipes, pH 7.2, 4 mM EGTA, 1 mM MgSO4, 1 mM DTT) containing 1 mM GTP, […] leupeptin, and 0.2 mM phenylmethylsulfonyl fluoride. Diluted lysate is then gently resuspended on ice and centrifuged (39,000 g/2° C./30 min) using a rotor (model JA20; Beckman Instruments Fullerton, Calif.) to clarify. Supernatants are collected and three-cycled tubulin prepared as previously described (Suprenant, K. A. (1989) Exp. Cell Res. 184: 167-180).\nas §3, §4"}, "[3]": {"details": "marine invertebrate gamete system, concentration not given"}, "[4]": {"details": "0.5 uM treatment for 2 hours, n = 79"}, "[5]": {"details": "0.75 mg/mL S. purpuratus tubulin at 26° C."}},
  "data": [
    {"smiles": "COc1cc2c(c(OC)c1OC)-c1ccc(OC)c(=O)cc1[C@@H](NC(C)=O)CC2", "note": "[Colchicine]", "values": [
      {"measurement": "Effect on GVBD", "setting": "Spisula oocytes; [3]", "result": "does not affect GVBD"},
      {"measurement": "Effect on spindle assembly", "setting": "Spisula oocytes; [3]", "result": "inhibits spindle assembly"},
      {"measurement": "Cytotoxicity", "setting": "human tumor cell lines", "result": "cytotoxic"}
    ]},
    {"smiles": "COc1ccc(S(=O)(=O)N(C(C)=O)c2ccccc2/C=C/c2cc[n+]([O-])cc2)cc1", "note": "[HMN-214, (E)-4-{2-[2-(N-acetyl-N-[4-methoxybenzenesulfonyl]amino]stillbazole]}1-oxide]", "values": [
      {"measurement": "Antitumor activity", "setting": "mouse xenograft models", "result": "potent antitumor activity"}
    ]},
    {"smiles": "COc1ccc(S(=O)(=O)Nc2ccccc2/C=C/c2cc[n+]([O-])cc2)cc1", "note": "[HMN-176, (E)-4-{[2-N-[4-methoxybenzenesulfonyl]amino]stillbazole}1-oxide]", "values": [
      {"measurement": "Effect on germinal vesicle breakdown (GVBD)", "setting": "Spisula oocytes; 0.25 μM, activated Spisula oocytes, observed at 9-26 minutes", "result": "not affecting GVBD"},
      {"measurement": "Effect on spindle assembly in oocytes", "setting": "Spisula oocytes; 0.25 μM, activated Spisula oocytes, observed at 15 and 26 minutes", "result": "inhibit spindle assembly"},
      {"measurement": "Spindle types observed", "setting": "CFPAC cells; 0.5 uM for 2 hours", "result": "multipolar spindles with disorganized chromosomes"},
      {"measurement": "Spindle type: Bipolar, number of cells", "setting": "CFPAC cells; [4]", "result": 13},
      {"measurement": "Spindle type: Bipolar, percent of cells", "setting": "CFPAC cells; [4]", "result": 16, "unit": "%"},
      {"measurement": "Spindle type: Monopolar, number of cells", "setting": "CFPAC cells; [4]", "result": "Monopolar 0 (0%)"},
      {"measurement": "Spindle type: Monopolar, percent of cells", "setting": "CFPAC cells; [4]", "result": "Monopolar 0 (0%)"},
      {"measurement": "Spindle type: Multipolar, number of cells", "setting": "CFPAC cells; [4]", "result": 66},
      {"measurement": "Spindle type: Multipolar, percent of cells", "setting": "CFPAC cells; [4]", "result": 84, "unit": "%"},
      {"measurement": "Time that CFPAC cells were in mitosis", "setting": "CFPAC cells; 0.5 uM, video microscopy", "result": "147 ± 55", "unit": "min"},
      {"measurement": "Effect on polymerization of tubulin", "setting": "sea urchin tubulin; [5]", "result": "only minor effect on the polymerization of tubulin"},
      {"measurement": "Effect on rate of microtubule polymerization", "setting": "sea urchin tubulin; [5]", "result": "may slightly lower the rate of microtubule polymerization"},
      {"measurement": "Effect on ultimate plateau of tubulin polymerization (turbidity)", "setting": "sea urchin tubulin; 0.75 mg/mL S. purpuratus tubulin at 26° C., by 25 minutes", "result": "does not affect the ultimate plateau"},
      {"measurement": "Effect on sea urchin tubulin turbidity", "setting": "sea urchin tubulin; 30° C., 0.7 mg/mL of tubulin", "result": "Very little to no effect"},
      {"measurement": "Aster formation by isolated centrosomes in defined media", "setting": "[1]", "result": "no asters were formed"},
      {"measurement": "Background microtubule polymerization (not centrosome-associated)", "setting": "[1]", "result": "microtubule polymerization was observed in the background"},
      {"measurement": "Status of centrosomes (gamma-tubulin staining)", "setting": "[1]", "result": "Centrosomes remained intact in all samples"},
      {"measurement": "Status of centrosomes (immunofluorescence alpha-/gamma-tubulin)", "setting": "[2]; lysates", "result": "centrosomes remained intact in all samples"},
      {"measurement": "Effect on aster formation in lysates", "setting": "[2]; lysates warmed to room temperature", "result": "blocked aster formation in the lysate aster formation assay in a dose dependent manner"},
      {"measurement": "Effect on clam tubulin turbidity", "setting": "clam tubulin", "result": "Very little to no effect"}
    ]}
  ]
}
